Read-outs that look alike come from different tables or passages of the source. Where a SMILES comes first, the peptide text is derived from it. The star is where a group is joined. NHPhenethyl = c1ccc(CCN*)cc1
Tests used:
[1] = system: guinea pig ileum longitudinal muscle with adhering myenteric plexus; assay: Guinea pig ileum test (electrically stimulated longitudinal muscle, inhibition of twitch height); type: cell-based; settings: ratio of IC50 of reference compound Met^5-enkephalin to IC50 of test compound in the same preparation, averaged (N=4); reference given as 100
Protocol: Adult male guinea pigs (Charles River, Hartley strain) weighing 300-500 g. are decapitated, and the terminal ileum is exposed by reflecting the overlying cecum, severed at the ileocecal juncture, and removed while cutting the mesenteric attachments to avoid excessive traction on the tissue. The ileum (about 30 cm. in length) is transferred to a beaker containing warm modified Krebs-Henseleit solution (118 mM sodium chloride, 4.75 mM potassium chloride, 2.54 mM calcium chloride, 1.19 mM potassium dihydrogen phosphate, 1.2 mM magnesium sulfate, 25 mM sodium bicarbonate, 11 mM glucose, 20 μM choline chloride and 0.125 μM pyrilamine maleate). The terminal (aboral) portion (about 10 cm. in length) is discarded, and segments (3-4 cm. in length) are cut from the remainder and gently slid onto a glass rod (5-6 mm. in diameter) and arranged so that the mesenteric attachment is in a straight line. A cotton swab moistened in the solution is then carefully used to separate the longitudinal muscle from the underlying circular muscle. The longitudinal muscle and adhering myenteric plexus is then gently removed from the remaining tissue with forceps.
Strips of this prepared longitudinal muscle are mounted in a double-jacketed organ bath (5 ml.) under tension (1.0 g.), connected to isometric transducers (Grass FT .03), bathed in the modified Krebs-Henseleit solution described above, aerated with oxygen-carbon dioxide (95:5) and maintained at 37° C.
Stimulators (Grass S-44) are set to deliver repetitive monophasic square wave field stimulation (supramaximal voltage, 0.10 Hz., 0.25 msec. duration) through platinum ring electrodes at the top and bottom of the bath. Regular contractions of the muscle, which result from electrically-induced liberation of acetylcholine from postganglionic parasympathetic nerves, are recorded on a polygraph (Grass model 5). Following tissue equilibration (45-60 min.) and repeated washing (every 10 min.) an aqueous solution of a reference or test compound is added to the bath in a microliter volume (1.25-250 μl) and reductions in muscle twitch height are recorded. More compound can be added […] first washing the preparation.
From the results a half-maximal inhibitory concentration (IC50) value for the compound is computed by regression analysis of a linear plot of logarithm of concentration against percent of inhibition of twitch height (probits). The ratio of the IC50 value of a reference compound to that of a test compound tested in the same preparation is the molar potency ratio. Usually four preparations are tested simultaneously by the same person (N=4), and the resulting four molar potency ratios are averaged. […]

rat = settings: relative to morphine, cited from earlier work
opiate receptor = settings: rat brain membranes, relative to morphine; cited from earlier work
guinea pig ileum = guinea pig ileum test; cited from earlier work
mouse vas deferens = mouse vas deferens test; cited from earlier work

N[C@@H](Cc1ccc(O)cc1)C(=O)N1CCC[C@H]1C(=O)NCCc1ccccc1 [Example 1, L-tyrosyl-N-(2-phenylethyl)-L-prolinamide] (H-Tyr-Pro-NHPhenethyl)
Average Molar Potency Ratio [1]: 117

N[C@@H](Cc1ccc(O)cc1)C(=O)N1CCC[C@H]1C(=O)NCCCc1ccccc1 [Example 2, L-tyrosyl-N-(3-phenylpropyl)-L-prolinamide]
Average Molar Potency Ratio [1]: 6

CN(CCCc1ccccc1)C(=O)[C@@H]1CCCN1C(=O)[C@@H](N)Cc1ccc(O)cc1 [Example 3, L-tyrosyl-N-methyl-N-(3-phenylpropyl)-L-prolinamide]
Average Molar Potency Ratio [1]: 9

C[C@@H](NC(=O)[C@@H](N)Cc1ccc(O)cc1)C(N)=O [H-Tyr-D-Ala-NH2]
times less potent than morphine, tail flick test (rat; intravenously): greater than 10 times | times less potent than morphine, tail flick test (rat; intraventricularly): 200 times | times less affinity than morphine, opiate receptor binding (opiate receptor): 830 times

C[C@@H](NC(=O)[C@@H](N)Cc1ccc(O)cc1)C(=O)NCCNCCc1ccccc1 [HTyrD-AlaNH(CH2)2 NH(CH2)2 Phenyl]
potency relative to Met-enkephalin (guinea pig ileum): < 1% | potency relative to Met-enkephalin (mouse vas deferens): < 1%

Met^5 -enkephalin [Met^5 --enkephalin]
Average Molar Potency Ratio [1]: 100

From patent US4450155A, “Analgesic dipeptide amides and method of use and compositions thereof” (Sterling Drug Inc., priority 1982, dated 1984)
